Experimental data as given in ChEMBL document CHEMBL3124876, “A perylene derivative regulates HIF-1α and Stat3 signaling pathways” (Bioorg Med Chem, 2014).
The source made the active and inactive calls. No cut-off for these calls is given here.

Experiments:
[1] = target: Histone acetyltransferase p300 (Homo sapiens) (UniProt Q09472); experiment: Inhibition of P300 in human MDA-MB-231 cells at 1 to 20 uM by Western blotting analysis; format: cell-based
[2] = target: Hypoxia-inducible factor 1-alpha (Homo sapiens) (UniProt Q16665); experiment: Inhibition of HIF-1 alpha in human PANC1 cells after 18 hrs by Western blotting analysis in hypoxia condition in presence of T40214; format: cell-based; conditions: PANC-1
Hypoxia-inducible factor 1-alpha (Homo sapiens), sequence (Q16665 whole entry, looked up): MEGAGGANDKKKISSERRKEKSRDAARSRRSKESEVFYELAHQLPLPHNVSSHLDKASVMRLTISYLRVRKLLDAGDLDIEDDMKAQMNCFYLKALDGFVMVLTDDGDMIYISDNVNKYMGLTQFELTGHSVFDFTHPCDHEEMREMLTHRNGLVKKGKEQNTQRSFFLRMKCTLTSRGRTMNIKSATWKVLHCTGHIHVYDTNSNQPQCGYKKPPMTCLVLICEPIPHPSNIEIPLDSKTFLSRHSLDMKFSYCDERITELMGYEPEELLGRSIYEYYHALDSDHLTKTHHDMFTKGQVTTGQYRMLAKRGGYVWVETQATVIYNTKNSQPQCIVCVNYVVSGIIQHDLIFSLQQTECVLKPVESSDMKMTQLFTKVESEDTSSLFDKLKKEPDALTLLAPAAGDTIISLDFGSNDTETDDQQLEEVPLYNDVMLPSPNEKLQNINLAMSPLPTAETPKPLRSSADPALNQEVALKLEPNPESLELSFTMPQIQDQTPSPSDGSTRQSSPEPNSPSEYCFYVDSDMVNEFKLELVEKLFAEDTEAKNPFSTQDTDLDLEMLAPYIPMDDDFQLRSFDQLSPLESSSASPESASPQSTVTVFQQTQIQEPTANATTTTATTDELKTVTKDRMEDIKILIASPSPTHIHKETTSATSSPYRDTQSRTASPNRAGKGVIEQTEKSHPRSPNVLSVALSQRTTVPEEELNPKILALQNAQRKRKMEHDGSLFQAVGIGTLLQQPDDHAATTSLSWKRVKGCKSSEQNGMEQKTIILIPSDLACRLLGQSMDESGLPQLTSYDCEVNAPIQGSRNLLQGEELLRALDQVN

[3] = target: Tyrosine-protein kinase JAK2 (Homo sapiens) (UniProt O60674); experiment: Inhibition of JAK2 phosphorylation in human MDA-MB-231 cells at 0.05 to 10 uM by Western blotting analysis; format: cell-based
Tyrosine-protein kinase JAK2 (Homo sapiens), sequence (O60674 whole entry): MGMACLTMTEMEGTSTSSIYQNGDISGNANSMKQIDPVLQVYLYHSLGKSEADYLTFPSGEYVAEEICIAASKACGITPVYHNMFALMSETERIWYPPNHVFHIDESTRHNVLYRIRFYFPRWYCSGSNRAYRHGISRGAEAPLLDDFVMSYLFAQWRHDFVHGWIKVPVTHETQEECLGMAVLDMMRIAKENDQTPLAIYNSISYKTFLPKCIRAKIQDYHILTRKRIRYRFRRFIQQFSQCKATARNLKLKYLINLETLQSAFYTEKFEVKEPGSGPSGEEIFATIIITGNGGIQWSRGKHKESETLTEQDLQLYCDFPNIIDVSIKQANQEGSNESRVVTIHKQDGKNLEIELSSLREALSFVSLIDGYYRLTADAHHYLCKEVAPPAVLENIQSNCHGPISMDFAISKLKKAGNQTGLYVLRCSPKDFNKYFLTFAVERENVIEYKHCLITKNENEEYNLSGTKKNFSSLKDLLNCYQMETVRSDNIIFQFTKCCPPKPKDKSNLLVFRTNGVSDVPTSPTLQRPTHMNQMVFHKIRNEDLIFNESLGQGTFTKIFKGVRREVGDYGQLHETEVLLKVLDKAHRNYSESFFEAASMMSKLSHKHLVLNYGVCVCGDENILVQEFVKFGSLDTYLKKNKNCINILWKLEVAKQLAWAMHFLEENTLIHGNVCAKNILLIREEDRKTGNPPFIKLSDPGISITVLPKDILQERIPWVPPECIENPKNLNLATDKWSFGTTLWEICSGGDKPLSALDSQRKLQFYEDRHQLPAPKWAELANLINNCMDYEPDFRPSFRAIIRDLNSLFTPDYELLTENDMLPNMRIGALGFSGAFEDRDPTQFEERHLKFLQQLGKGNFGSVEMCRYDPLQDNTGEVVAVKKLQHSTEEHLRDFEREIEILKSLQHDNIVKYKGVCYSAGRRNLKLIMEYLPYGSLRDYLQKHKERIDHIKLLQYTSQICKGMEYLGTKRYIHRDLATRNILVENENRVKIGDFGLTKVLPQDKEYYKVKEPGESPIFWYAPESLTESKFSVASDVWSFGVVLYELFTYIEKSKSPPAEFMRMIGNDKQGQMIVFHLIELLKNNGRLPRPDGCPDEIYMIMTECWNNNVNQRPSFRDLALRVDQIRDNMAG

[4] = target: Tyrosine-protein kinase JAK2 (Homo sapiens) (UniProt O60674); experiment: Inhibition of JAK2 (unknown origin) phosphorylation at 10 uM after 6 hrs by cell-based Western blotting analysis
[5] = target: T1, Signal transducer and activator of transcription 5A (Homo sapiens) (UniProt P42229); experiment: Inhibition of Stat5 phosphorylation in human PANC1 cells at 0.5 to 20 uM by Western blotting analysis; format: cell-based; conditions: PANC-1
T1 sequence (whole entry): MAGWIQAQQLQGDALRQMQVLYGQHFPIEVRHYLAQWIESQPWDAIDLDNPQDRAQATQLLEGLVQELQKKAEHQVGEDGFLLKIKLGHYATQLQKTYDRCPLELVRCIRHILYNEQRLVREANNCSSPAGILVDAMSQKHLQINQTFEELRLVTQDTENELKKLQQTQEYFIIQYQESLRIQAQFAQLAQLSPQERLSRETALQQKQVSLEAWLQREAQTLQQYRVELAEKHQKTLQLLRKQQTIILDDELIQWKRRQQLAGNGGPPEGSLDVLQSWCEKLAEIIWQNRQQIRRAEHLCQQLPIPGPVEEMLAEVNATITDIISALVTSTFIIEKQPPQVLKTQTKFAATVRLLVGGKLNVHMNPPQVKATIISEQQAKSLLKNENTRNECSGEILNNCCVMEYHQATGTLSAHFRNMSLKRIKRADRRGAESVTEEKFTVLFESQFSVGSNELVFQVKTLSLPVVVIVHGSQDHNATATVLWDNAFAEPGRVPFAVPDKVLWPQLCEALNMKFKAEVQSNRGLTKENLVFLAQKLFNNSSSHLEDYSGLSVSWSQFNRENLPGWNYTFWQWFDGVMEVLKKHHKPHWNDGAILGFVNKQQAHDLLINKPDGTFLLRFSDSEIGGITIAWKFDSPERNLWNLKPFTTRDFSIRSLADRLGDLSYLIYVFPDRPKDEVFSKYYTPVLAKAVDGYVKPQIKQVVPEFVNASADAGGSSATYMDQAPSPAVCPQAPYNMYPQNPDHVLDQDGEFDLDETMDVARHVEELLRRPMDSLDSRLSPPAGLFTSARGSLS

[6] = Induction of apoptosis in human MCF10A cells assessed as reduction in cell viability at 1 to 10 uM by MTT assay; format: cell-based; conditions: mcf-10a
[7] = target: Proto-oncogene tyrosine-protein kinase Src (Homo sapiens) (UniProt P12931); experiment: Inhibition of […] phosphorylation in human MDA-MB-231 cells at 0.05 to 10 uM by Western blotting analysis; format: cell-based
Proto-oncogene tyrosine-protein kinase Src (Homo sapiens), sequence (P12931 2-536 limits assumed): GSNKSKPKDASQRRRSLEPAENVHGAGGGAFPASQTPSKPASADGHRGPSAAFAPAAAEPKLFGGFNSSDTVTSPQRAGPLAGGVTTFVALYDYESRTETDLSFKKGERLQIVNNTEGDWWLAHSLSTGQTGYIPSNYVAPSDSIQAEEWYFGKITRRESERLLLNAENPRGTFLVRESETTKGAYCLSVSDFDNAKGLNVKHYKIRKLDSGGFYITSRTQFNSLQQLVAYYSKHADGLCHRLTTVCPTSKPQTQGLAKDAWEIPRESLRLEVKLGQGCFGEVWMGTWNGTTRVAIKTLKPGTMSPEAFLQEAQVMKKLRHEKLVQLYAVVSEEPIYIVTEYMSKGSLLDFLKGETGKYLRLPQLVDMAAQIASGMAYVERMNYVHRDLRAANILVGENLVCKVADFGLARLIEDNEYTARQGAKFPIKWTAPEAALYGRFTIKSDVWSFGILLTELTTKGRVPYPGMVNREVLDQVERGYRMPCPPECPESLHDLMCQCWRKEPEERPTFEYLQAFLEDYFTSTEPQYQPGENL

[8] = Antitumor activity against human PANC1 cells xenografted in Balb nu/nu mouse assessed as mean tumor volume at 2 mg/kg, ip administered every other day for 10 days measured after 19 days (reference value: 754 mm'3); format: functional, PANC-1; conditions: route intraperitoneal
MDA-MB-231 [9] = experiment: Anticancer activity in human MDA-MB-231 cells assessed as reduction of total Stat3 level at 10 uM after 18 hrs by Western blotting analysis; format: functional, cell-based
[10] = target: Signal transducer and activator of transcription 3 (Homo sapiens) (UniProt P40763); conditions: PANC-1, 0.5 to 20 uM
Signal transducer and activator of transcription 3 (Homo sapiens), sequence (P40763 whole entry, the tested form may be a part): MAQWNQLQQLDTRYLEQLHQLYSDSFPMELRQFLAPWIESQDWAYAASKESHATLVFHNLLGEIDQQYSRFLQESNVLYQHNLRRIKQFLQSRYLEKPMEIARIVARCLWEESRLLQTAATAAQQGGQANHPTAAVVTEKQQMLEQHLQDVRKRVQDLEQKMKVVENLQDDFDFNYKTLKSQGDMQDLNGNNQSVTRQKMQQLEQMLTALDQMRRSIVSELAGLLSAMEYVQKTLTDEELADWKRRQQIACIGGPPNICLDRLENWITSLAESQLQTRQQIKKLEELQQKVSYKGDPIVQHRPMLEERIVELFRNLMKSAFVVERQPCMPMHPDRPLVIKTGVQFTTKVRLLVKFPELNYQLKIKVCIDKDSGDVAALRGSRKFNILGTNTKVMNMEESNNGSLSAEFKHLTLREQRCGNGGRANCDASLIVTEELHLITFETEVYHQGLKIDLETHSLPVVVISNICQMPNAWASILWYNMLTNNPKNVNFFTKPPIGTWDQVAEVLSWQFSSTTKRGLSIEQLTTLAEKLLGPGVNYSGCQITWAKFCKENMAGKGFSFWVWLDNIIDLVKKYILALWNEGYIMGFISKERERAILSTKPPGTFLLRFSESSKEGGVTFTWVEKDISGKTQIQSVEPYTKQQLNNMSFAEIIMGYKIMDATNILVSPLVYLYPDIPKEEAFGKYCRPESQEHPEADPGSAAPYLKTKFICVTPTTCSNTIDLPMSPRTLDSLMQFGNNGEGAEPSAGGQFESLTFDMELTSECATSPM
Description: Inhibition of Stat3 phosphorylation in human PANC1 cells assessed as inhibition of Bcl2 expression at 0.5 to 20 uM by Western blotting analysis in hypoxia condition

[11] = Reduction of HIF-1 alpha mRNA expression in human PANC1 cells at 5 to 10 uM by qRT-PCR analysis; format: functional, cell-based; conditions: PANC-1
[12] = target: Signal transducer and activator of transcription 3 (Homo sapiens) (UniProt P40763); conditions: MDA-MB-468, 1 to 20 uM
Description: Inhibition of Stat3 phosphorylation in human MDA-MB-468 cells assessed as inhibition of Bcl2 expression at 1 to 20 uM by Western blotting analysis in normoxia condition

[13] = target: Endothelial PAS domain-containing protein 1 (Homo sapiens) (UniProt Q99814); experiment: Inhibition of HIF-2 alpha in human OVCAR3 cells at 1 to 20 uM by Western blotting analysis in hypoxia condition; format: cell-based; conditions: OVCAR-3
Endothelial PAS domain-containing protein 1 (Homo sapiens), sequence (Q99814 whole entry, the tested form may be a part): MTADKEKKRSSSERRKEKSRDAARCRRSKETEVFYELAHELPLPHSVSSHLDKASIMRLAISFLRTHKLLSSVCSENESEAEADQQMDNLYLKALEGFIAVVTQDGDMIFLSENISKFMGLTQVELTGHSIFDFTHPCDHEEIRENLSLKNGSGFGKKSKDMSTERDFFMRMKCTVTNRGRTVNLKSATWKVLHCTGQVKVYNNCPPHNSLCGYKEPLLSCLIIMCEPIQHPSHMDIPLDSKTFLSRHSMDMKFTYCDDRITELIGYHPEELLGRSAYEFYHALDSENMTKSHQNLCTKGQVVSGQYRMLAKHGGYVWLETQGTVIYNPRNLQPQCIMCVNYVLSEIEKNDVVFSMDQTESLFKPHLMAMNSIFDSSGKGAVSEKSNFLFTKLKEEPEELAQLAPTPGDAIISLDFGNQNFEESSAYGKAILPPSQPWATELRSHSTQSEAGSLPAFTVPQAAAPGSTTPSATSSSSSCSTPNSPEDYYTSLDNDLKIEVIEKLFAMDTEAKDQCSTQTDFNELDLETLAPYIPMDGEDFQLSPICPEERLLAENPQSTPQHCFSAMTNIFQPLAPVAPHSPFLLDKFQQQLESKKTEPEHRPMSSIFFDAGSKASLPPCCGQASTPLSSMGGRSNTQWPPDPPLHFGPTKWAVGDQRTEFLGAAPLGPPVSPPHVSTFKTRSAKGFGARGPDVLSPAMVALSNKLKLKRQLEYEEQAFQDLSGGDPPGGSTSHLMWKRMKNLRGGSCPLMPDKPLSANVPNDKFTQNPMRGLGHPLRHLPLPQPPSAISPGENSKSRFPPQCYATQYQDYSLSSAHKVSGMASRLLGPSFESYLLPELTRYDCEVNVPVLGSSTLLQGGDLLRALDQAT

MDA-MB-231 [14] = experiment: Reduction of total Stat3 level in human MDA-MB-231 cells at 0.05 to 20 uM by Western blotting analysis; format: functional, cell-based
PANC-1 = experiment: Inhibition of ERK in human PANC1 cells at 1 to 20 uM by Western blotting analysis; format: cell-based
[15] = target: Signal transducer and activator of transcription 3 (Homo sapiens) (UniProt P40763); experiment: Inhibition of Stat3 phosphorylation in human MDA-MB-231 cells assessed as inhibition of c-Myc expression at 1 to 20 uM by Western blotting analysis; format: cell-based
MDA-MB-468 = experiment: Induction of apoptosis in human MDA-MB-468 cells assessed as reduction in cell viability at 8 uM after 12 to 48 hrs by MTT assay; format: functional, cell-based
MDA-MB-231 [16] = experiment: Induction of apoptosis in human MDA-MB-231 cells assessed as reduction in cell viability at 8 uM after 12 to 48 hrs by MTT assay; format: functional, cell-based

inhibition [1]: inactive
inhibition [2]: Active
inhibition [3]: inactive
inhibition [4]: inactive
inhibition [5]: inactive
inhibition [7]: inactive
inhibition [10]: Active
inhibition [12]: Active
inhibition [13]: Active
inhibition [15]: Active
Structure (SMILES): CN(C)CCCN1C(=O)c2ccc3c4ccc5c6c(ccc(c7ccc(c2c37)C1=O)c64)C(=O)N(CCCN(C)C)C5=O
Activity [6]: Non-toxic
Activity [8]: 75 mm3
Activity (MDA-MB-231 [9]): inactive
Activity [11]: inactive
Activity (MDA-MB-231 [14]): Active
inhibition (PANC-1): inactive
Activity (MDA-MB-468): Active
Activity (MDA-MB-231 [16]): Active
